# Measured values: ChEMBL document CHEMBL1914284, “Pyrazinamide, but not pyrazinoic acid, is a competitive inhibitor of NADPH binding to Mycobacterium tuberculosis fatty acid synthase I” (Bioorg Med Chem Lett, 2011)
# Activity calls are given as the source filed them. The calls are words filed in the database; no cut-off is given here.
# Legend:
# [1] = system: Mycobacterium tuberculosis; assay: Binding affinity to Mycobacterium tuberculosis fatty acid synthase 1 at 8 mM by STD NMR spectrophotometric assay
# [2] = system: Mycobacterium tuberculosis; assay: Binding affinity to Mycobacterium tuberculosis fatty acid synthase 1 at 500 uM by STD NMR spectrophotometric assay
# [3] = Binding affinity to Mycobacterium tuberculosis fatty acid synthase 1 by STD NMR spectrophotometric analysis in presence of increasing concentration of NADPH
# [4] = Competitive inhibition of Mycobacterium tuberculosis fatty acid synthase 1 assessed as inhibition of NADPH oxidation by STD NMR spectrophotometric analysis
# [5] = system: Mycobacterium tuberculosis; assay: Binding affinity to Mycobacterium tuberculosis fatty acid synthase 1 at 350 uM by STD NMR spectrophotometric assay
structure (smiles),measurement,setting,value
O=C(O)c1cnccn1,Activity,[1],Active
CC[C@@H](CO)NCCN[C@@H](CC)CO,Activity,[2],inactive
NC(=O)c1cnccn1 [PYRAZINAMIDE],Kd,[3],70 µM
same,Ki,[4],41 µM
same,Activity,[1],Active
C/C=C/C/C=C/CCC(=O)[C@H]1O[C@H]1C(N)=O,Activity,[5],Active
